Measurements published in patent US20030235811A1, “Crystallized mammalian carboxylesterase polypeptide and screening methods employing same” (priority 2002, published 2003).

Assays:
wild type rCE = target: T1, wild type rCE (Oryctolagus cuniculus, UniProt P12337); experiment: CD thermal denaturation of wild type rCE in the presence of 4PP; type: binding, rabbit; details: 1 mM βME
T1 construct: made in house; host or cells: Spodoptera frugiperda Sf21 cells, baculovirus, secreted into the medium
T1 sequence (P12337 19-559 limits assumed): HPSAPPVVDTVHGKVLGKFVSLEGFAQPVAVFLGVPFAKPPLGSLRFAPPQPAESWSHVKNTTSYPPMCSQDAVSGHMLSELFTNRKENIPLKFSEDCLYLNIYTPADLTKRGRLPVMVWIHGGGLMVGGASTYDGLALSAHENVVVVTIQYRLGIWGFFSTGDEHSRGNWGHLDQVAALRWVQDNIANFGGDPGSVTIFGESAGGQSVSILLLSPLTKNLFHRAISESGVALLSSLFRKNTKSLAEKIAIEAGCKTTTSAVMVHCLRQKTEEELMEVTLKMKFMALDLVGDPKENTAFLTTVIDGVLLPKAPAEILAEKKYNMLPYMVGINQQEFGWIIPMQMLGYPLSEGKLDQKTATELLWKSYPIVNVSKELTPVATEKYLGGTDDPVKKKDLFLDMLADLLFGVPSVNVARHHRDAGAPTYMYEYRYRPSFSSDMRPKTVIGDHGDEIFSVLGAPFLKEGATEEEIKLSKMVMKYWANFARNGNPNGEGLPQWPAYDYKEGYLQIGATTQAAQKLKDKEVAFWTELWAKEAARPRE
Experimental: (§1) Experiments were conducted by monitoring rCE denaturation in an Applied Photophysics PISTAR-180™ CD spectropolarimeter (Applied Photophysics, Surrey, United Kingdom). Deglycosylated rCE was generated by an 18-hour treatment with 0.25 μM PNGase F (Hampton Research, Laguna Niguel, Calif., United States of America) at 37° C., which cleaves the complete high-mannose glycosyl group. Removal of the carbohydrate chains was confirmed by SDS-PAGE. Wild type protein was also heated to 37° C. for 18 hours before CD experiments. Wild type or deglycosylated rCE (0.15 mg ml^−1 (2.5 μM); in 10 mM phosphate buffer, pH 7.0, and 1 mM fresh beta-mercaptoethanol (βME) to eliminate the stabilizing effect of disulfide linkages) was treated with no 4PP or with 0.016 mM, 0.16 mM, 1.6 mM or 10 mM 4PP. The temperature was increased from 20 to 98° C. while monitoring the ellipticity at 222 nm. […]
(§2) To confirm the significance of the 4PP bound to the surface of rCE, thermal denaturation studies were performed using CD on both wild type and deglycosylated rCE. […] In the presence of fresh reducing agent (1 mM β-mercaptoethanol (βME)), thermal denaturation of wild type and deglycosylated rCE was monitored alone and in the presence of 10-(0.016 mM), 100-(0.16 mM), 1,000-(1.6 mM) and 6,000-fold (10 mM) molar excess 4PP (FIGS. 7-9). […]

deglycosylated rCE = target: T2, deglycosylated rCE (Oryctolagus cuniculus, UniProt P12337); experiment: CD thermal denaturation of deglycosylated rCE in the presence of 4PP; type: binding, rabbit
T2 construct: made in house; host or cells: Spodoptera frugiperda Sf21 cells, baculovirus, secreted; then PNGase F treatment
T2 sequence (P12337 19-559): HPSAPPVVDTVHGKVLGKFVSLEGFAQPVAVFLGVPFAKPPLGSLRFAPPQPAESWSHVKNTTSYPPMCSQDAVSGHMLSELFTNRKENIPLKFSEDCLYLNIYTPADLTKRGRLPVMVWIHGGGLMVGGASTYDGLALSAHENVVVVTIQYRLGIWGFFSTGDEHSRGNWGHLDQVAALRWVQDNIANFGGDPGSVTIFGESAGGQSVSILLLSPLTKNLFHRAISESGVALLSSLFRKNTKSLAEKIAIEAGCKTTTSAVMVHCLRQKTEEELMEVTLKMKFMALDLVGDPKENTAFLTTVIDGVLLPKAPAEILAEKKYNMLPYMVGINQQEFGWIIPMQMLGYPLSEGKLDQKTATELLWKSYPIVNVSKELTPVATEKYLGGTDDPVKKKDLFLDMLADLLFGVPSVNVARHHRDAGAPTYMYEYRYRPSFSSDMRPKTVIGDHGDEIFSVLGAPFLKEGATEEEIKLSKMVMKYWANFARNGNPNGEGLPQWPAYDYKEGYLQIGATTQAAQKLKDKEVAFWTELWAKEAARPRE
Experimental: as §1, §2

[1] = humans; cited from earlier work
hCE1 = hCE1 (Homo sapiens, UniProt P23141)
Experimental: A 62 kDa C-terminally-truncated form of human carboxylesterase 1 (hCE1; SEQ ID NO: 4) that lacks six C-terminal amino acids, allowing secretion of the expressed enzyme (baculovirus in Spodoptera frugiperda Sf21 cells) into the culture media, was employed. hCE1 was purified by preparative isoelectric focusing and size exclusion chromatography (BIO-GEL® P-100, Bio-Rad, Laboratories, Hercules, Calif.) from protein-free culture media. Purified hCE1 was concentrated to 5 mg ml^−1 in 20 mM HEPES pH 7.4, and crystallized in the presence of either 10 mM tacrine or 100 mM homatropine. […]
Diffraction data were collected at Stanford Synchrotron Radiation Laboratory (SSRL) beamline 9-1, and were processed and reduced using MOSFILM (Leslie, (1992), Joint CCP4+ESF-EAMCB Newsletter on Protein Crystallography, No. 26.). […] The structures of hCE1 were determined by molecular replacement using the structure of rabbit carboxylesterase (rCE; RCSB Protein ID No. 1K4Y; Bencharit et al., (2002) Nat.Struct.Biol. 9: 337), also an aspect of the present invention, as a search model (81% sequence identity). […] Manual adjustments and rebuilding were performed using the program O (Jones et al., (1991) Acta Crystallogr. A 47: 110-119) and σA-weighted electron density maps (Read, (1986) Acta Crystallogr. A 42: 140-149). […]

[2] = target: the molecule itself; experiment: X-ray crystal structure (self-association, homotrimer)
Experimental: Diffraction data were collected at Stanford Synchrotron Radiation Laboratory (SSRL) beamline 9-1, and were processed and reduced using MOSFILM (Leslie, (1992), Joint CCP4+ESF-EAMCB Newsletter on Protein Crystallography, No. 26.). Crystals were of space group P2₁, and contained six molecules in the asymmetric unit for both the tacrine and homatropine complexes. See FIG. 12, in which each hCE1 is depicted in a different color. The structures of hCE1 were determined by molecular replacement using the structure of rabbit carboxylesterase (rCE; RCSB Protein ID No. 1K4Y; Bencharit et al., (2002) Nat.Struct.Biol. 9: 337), also an aspect of the present invention, as a search model (81% sequence identity). Non-identical side chains were trimmed prior to rotation and translation function searches in AmoRe (Navaza & Saludjian, (1997) Methods Enzymol. 276A: 581-594). The structures were refined using torsion angle dynamics in CNS with the maximum likelihood function target, and included an overall anisotropic B-factor and a bulk solvent correction. […] Manual adjustments and rebuilding were performed using the program O (Jones et al., (1991) Acta Crystallogr. A 47: 110-119) and σA-weighted electron density maps (Read, (1986) Acta Crystallogr. A 42: 140-149). […]

Sequence of hCE1 (P23141 18-560 isoform P23141-3 limits assumed): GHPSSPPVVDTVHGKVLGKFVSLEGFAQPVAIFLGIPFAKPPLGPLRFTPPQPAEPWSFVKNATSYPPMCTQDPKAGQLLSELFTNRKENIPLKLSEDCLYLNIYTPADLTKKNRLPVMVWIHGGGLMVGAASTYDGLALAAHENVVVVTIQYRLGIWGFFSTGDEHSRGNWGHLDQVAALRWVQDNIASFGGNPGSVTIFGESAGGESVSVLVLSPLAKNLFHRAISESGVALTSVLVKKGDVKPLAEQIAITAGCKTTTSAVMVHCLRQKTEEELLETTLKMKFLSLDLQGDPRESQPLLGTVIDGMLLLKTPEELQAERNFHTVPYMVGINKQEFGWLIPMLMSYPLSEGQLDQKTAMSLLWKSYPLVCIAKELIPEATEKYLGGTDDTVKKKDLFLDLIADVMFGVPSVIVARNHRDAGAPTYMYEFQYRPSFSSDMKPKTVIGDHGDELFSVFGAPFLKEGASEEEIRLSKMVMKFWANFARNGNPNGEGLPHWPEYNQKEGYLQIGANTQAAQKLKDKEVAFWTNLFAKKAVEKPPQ

C1CCN(C2CCNCC2)CC1 [4PP, 4-piperidino-piperidine]
melting temperature (Tm) of wild type rCE (wild type rCE; 10- to 100-fold molar excess of 4PP (0.016-0.16 mM)): 51 °C | melting temperature (Tm) of wild type rCE (wild type rCE; higher concentrations of 4PP (1.6 mM, 10 mM)): 54-55 °C | effect on thermal stability of deglycosylated rCE (deglycosylated rCE; high concentrations of 4PP): stabilization occurs only with high concentrations | effect on thermal stability of deglycosylated rCE (deglycosylated rCE; lower concentrations of 4PP): destabilize the enzyme

CCc1c2c(nc3ccc(O)cc13)-c1cc3c(c(=O)n1C2)COC(=O)[C@]3(O)CC [SN-38]
share of the SN-38 generated by activation of CPT-11 that makes it to the tumor [1]: ~2%

Nc1c2c(nc3ccccc13)CCCC2 [tacrine, 1,2,3,4-tetrahydro-9-acridinamine]
binding to hCE1 (hCE1): binds effectively

B1: human carboxylesterase 1 (hCE1), 62 kDa C-terminally-truncated form lacking six C-terminal amino acids (enzyme)
chain: GHPSSPPVVDTVHGKVLGKFVSLEGFAQPVAIFLGIPFGKPPLGPLRFTPPQPAEPWSFVKNATSYPPMCTQDPKAGQLLSELFTNRKENIPLKLSEDCLYLNIYTPADLTKKNRLPVMVWIHGGGLMVGAASTYDGLALAAHENVVVVTIQYRLGIWGFFSTGDEHSRGNWGHLDQVAALRWVQDNIASFGGNPGSVTIFGESAGGESVSVLVLSPLAKNLFHRAISESGVALTSVLVKKGDVKPLAEQIAITAGCKTTTSAVMVHCLRQKTEEELLETTLKMKFLSLDLQGDPRESQPLLGTVIDGMLLLKTPEELQAERNFHTVPYMVGINKQEFGWLIPMLMSYPLSEGQLDQKTAMSLLWKSYPLVCIAKELIPEATEKYLGGTDDTVKKKDLFLDLIADVMFGVPSVIVARNHRDAGAPTYMYEFQYRPSFSSDMKPKTVIGDHGDELFSVFGAPFLKEGASEEEIRLSKMVMKFWANFARNGNPNGEGLPHWPEYNQKEGYLQIGANTQAAQKLKDKEVAFWTNLFAKKAVEKPPQT
modifications: N-linked glycans (added to the model in refinement; positions not stated for the crystallised protein)
notes: Expressed by baculovirus in Spodoptera frugiperda Sf21 cells and secreted into the culture media; crystallised with tacrine or homatropine; also called human CE; human CE1
binding result [2]: binds
